The test system of series [1] is SW-982 synovial cell line. Kind of series: Sulforhodamine B (SRB) assay, IC50 on SW-982 cells. The series is classed as cell-based. The settings on record: Homo sapiens, SW982, 48 h. On the procedure:
(§1) The sulforhodamine B (SRB) assay^21 was used to determine the drug concentration that half of the cell growth/viability is inhibited (IC50). Cells were cultured in 96-well plates, with 5,000 cells in 100 μL of culture medium per well. The rest of the protocol was the same as described previously^22,23.
(§2) Data shown in Table 1 are IC50 values of VR23 and other compounds, which were determined using sulforhodamine B (SRB) assays on immunologically relevant cells (THP-1, SW-982 and PBMC). […] Two well-known proteasome inhibitors, BTZ and CFZ, were included for comparison since VR23 is also a proteasome inhibitor, albeit targeting different subunits^2. The widely used anti-inflammatory DEX was included, also for comparison.
(§3) THP-1, SW982 and PBMC cells (5,000 cells/well) were treated with each compound for 48 hours. The IC50, the drug concentration reducing cell growth/viability by 50%, was determined by a dose-response four-parameter curve (generated with GraphPad Prism V. 4.02) formed by 10 two-fold dilutions (n=3).
In general terms: Sulforhodamine B stains cellular protein and so reports cell mass.

The next series relates to THP-1 monocytic cells. Kind of series: Sulforhodamine B (SRB) assay, IC50 on THP-1 cells. The class given is cell-based, human. On the procedure: as §1, §2, §3
Another series has as its system PBMC cells. Kind of series: Sulforhodamine B (SRB) assay, IC50 on PBMC. The series is classed as cell-based, human. The method, then: as §1, §2, §3
Series [2] deals with CQ-sensitive P. falciparum 3D7. Kind of series: Anti-parasitic assay (SYBR Green I), 3D7 strain. The series is classed as cell-based. Particulars: Plasmodium falciparum, 3D7, 48 h. The method, then: The CQ-resistant P. falciparum ItG and the CQ-sensitive 3D7 strains were maintained and assays carried out as described previously^25. Briefly, P. falciparum strains were maintained in RPMI 1640 culture medium supplemented with 10% human serum, 25 mM HEPES, gentamicin, and 50 μM of hypoxanthine. The anti-parasitic assay was carried out as described previously^25. Briefly, a compound gradient was generated across a 96-well assay plate; a constant number of parasites added in 50 μL of the culture medium; allowed to grow for 48 hours; and followed by the measurement of DNA amounts (i.e., fluorescence) using SYBR Green I. The IC50 value is the 50% point between alive and dead for which a three-parameter fit was used.
VR23 is a derivative of CQ; a well-known anti-malarial drug. […] ItG and […] P. falciparum strains are CQ-resistant and CQ-sensitive strains, respectively. IC50 values were calculated by S.E.M (Table 2).

In series [3] the test system is IL-8 secretion in THP-1 cells. Description: IL-8 secretion in TNF-α-stimulated THP-1 cells (ELISA). The series is classed as cell-based, human. Particulars: THP-1, TNF-α 10 ng/mL, 6 hours. The method, then: For comparison, BTZ (6 nM), CFZ (1 nM), and DEX (2 μM) were also included. *** is p<0.001, which denotes a significant difference from the TNF-α-only group, determined by a Dunnett's test. The values presented are the mean±SEM (n=3).
(§4) The enzyme-linked immunosorbent assay (ELISA) is a quantitative measurement based on sandwich-based enzyme linking, using a protein-specific capture antibody to determine the levels of single or multiple chemokines and cytokines.
The data in FIG. 12 show the levels of IL-8 secreted in the THP-1 culture medium in response to TNF-α alone (10 ng/mL) or in combination with varying concentrations (0.5, 1.0, 2, 4 or 6 μM) of VR23. For comparison, BTZ (6 nM), CFZ (1 nM) and DEX (2 μM) were also included. The measurement time was 6-hour post-stimulation. The measurement was carried out with a single-analyte ELISA.
A general note: An ELISA detects its analyte on a solid surface through an enzyme-linked reagent.

The test system of series [4] is IL-6 secretion in SW-982 synovial cells. Description: IL-6 secretion in IL-1β-stimulated SW-982 synovial cells (ELISA). The series is classed as cell-based, human. Particulars: SW-982, IL-1β 1 ng/mL, 6 hours; VR23 10 μM, HCQ 60 μM. On the procedure:
The mean±SEM (n=2) values were determined by a Dunnett's test.
as §4
The measurement was carried out with a single-analyte ELISA. […] While not wishing to be limited by theory, cytokine IL-6 is strongly implicated to the progress of rheumatoid arthritis^29.

The test system of series [5] is human fibroblast-like synoviocytes from healthy donors (HFLS-N). Description: Viability test, HFLS-N cells. The series is classed as cell-based. The settings on record: 6 hours, IL-1β 10 ng/mL, VR23 2.5-10 μM. On the procedure: The values presented are the mean±SEM (n=3).
The CCK-8 assay was used to count viable cells under the various treatment conditions. Briefly, cells were cultured in 11 columns of a 96-well clustered plate, with 5,000 cells in 100 μL of culture medium per well, excluding one column for a media-only control. The plate was incubated overnight at 37° C. in the humidified conditions, followed by treatment with test compounds diluted in the culture medium (10 μL). Each column was treated with a different condition so that each treatment could have 8 repeats. […] The absorbance was measured using an automatic plate reader (Synergy H4 Hybrid Multi-Mode Microplate Reader, BioTek, Montreal, Canada) at 450 nm wavelength. The cell viability of each treatment sample was determined by using the following equation (%)=(Abstrtmt-Absmedia)/(AbsuT-Absmedia)*100, where Abstrtmt is the absorbance value of cells with the various treatment conditions; Absmedia is the absorbance of the well containing media only; AbsuT is the absorbance of the wells with untreated cells.
This finding was extended to human cells relevant to autoimmune diseases. […] Cytokine levels in cell culture supernatants were determined by a single-analyte ELISA. […] The cytokine secretion was measured in cell culture supernatants by a single-analyte ELISA.

The subject of series [6] is IL-6 secretion in HFLS-N cells. Kind of series: IL-6 secretion in stimulated HFLS-N cells (ELISA). The class given is cell-based, human. The settings on record: 6 hours. On the procedure: The mean±SEM (n=3) values were determined by a Dunnett's test.
The values presented are the mean±SEM (n=2).
as §4
This finding was extended to human cells relevant to autoimmune diseases. Human fibroblast-like synoviocytes (HFLS) are present in the synovial fluid of joint capsules and produce harmful molecules that contribute to joint destruction and the exacerbation of the disease in rheumatoid arthritis patients. […] The cells were then stimulated with IL-1β (FIG. 16) or LPS (FIG. 17), in the absence (control; IL-1β only) or presence of VR23 or HCQ. HCQ was included for comparison because it is often used to treat rheumatoid arthritis. […] For “VR23 only” samples, 5 μM VR23 was used. Fifty thousand HFLS cells per mL were used for the experiment. Cytokine levels in cell culture supernatants were determined by a single-analyte ELISA. […] Fifty thousand HFLS cells per mL were used for the experiment. The cytokine secretion was measured in cell culture supernatants by a single-analyte ELISA.

SMILES strings stand for the structures.

As a reminder, the IC50 is the concentration at which inhibition is half-maximal. Low readings indicate greater potency in that assay, high ones weaker potency in that assay. In the case of `O=[N+]([O-])c1ccc(S(=O)(=O)N2CCN(c3ccnc4cc(Cl)ccc34)CC2)c([N+](=O)[O-])c1` [VR23, 7-chloro-4-(4-(2,4-dinitrophenylsulfonyl)piperazin-1-yl)quinoline], the IC50 is 4330 ± 700 nM in series [1]; 2580 ± 500 nM in the series on THP-1 monocytic cells (48 hours); 3000 nM in the series with THP-1 monocytic cells (Homo sapiens, THP-1, 48 h); 3140 ± 260 nM in the series with PBMC cells (48 hours); 3000 nM in the series on PBMC cells (Homo sapiens, 48 h); 416 nM in series [2]. For the same compound, the “level of IL-8” value in series [3] (0.5 μM) is “significantly (p<0.001) reduced the level of IL-8”. For the same compound, the IL-8 secretion entry in series [3] (VR23 at IC50 concentration (between 2 and 4 μM), BTZ 6 nM, CFZ 1 nM) was “effectively reduces IL-8 secretion”. The figures for the “secretion of IL-6” value in series [4] and in series [6] (LPS 100 ng/mL) were “substantially reduced the secretion of IL-6” and “rate of the decrease is much lower”, respectively. In series [5], the cell viability result is on record as “none of the conditions examined significantly affected the viability”. Besides, the “IL-6 secretion, dose dependence” value in series [6] (IL-1β 10 ng/mL, VR23 2.5-10 μM, HCQ 15 or 30 μM) is on record as “decreases in a dose dependent manner”.

The values are drawn from patent US11357774B2, “Use of a quinoline sulfonyl compound for treatment of inflammation, inflammatory disorders, autoimmune disorders and malaria” (priority 2019, dated 2022).
